Reference: US20180220650A1, “PLANT GROWTH REGULATOR COMPOUNDS” (Syngenta Participations AG, priority 2015, published 2018)
Read-outs that look alike come from different tables or passages of the source.

How the values were obtained:
[1] = Hydrolytic stability assay; type: physicochemical; settings: for half-life: aqueous buffer with acetonitrile co-solvent, 40° C., read-out: Hydrolytic Stability (t1/2, hours) (converted); for loss of test compound (definitive half-life could not be determined): pH7
Protocol: The objective of the hydrolytic stability assay was to determine the chemical stability of the individual test compounds in a strictly controlled and reproducible environment allowing a comparison of their in-vitro stability under aqueous conditions at pH7 and 9. Due to low solubility of these analogues, a percentage of acentonitrile is added to the system to aid solubility (nominally 10-50%). Prior to conducting the individual assays, 1000 ppm stock solutions of all four test compounds were prepared in methanol. The reagents used in the assays were prepared as follows: 20 mM buffer solution: A stock of 20 mM mixed acetate, borate and phosphate buffer was prepared and the pH adjusted to 7 or 9 as required. Test solutions were prepared in LC vials for each test compound in the following manner: Mobile Phase Control: Mobile phase (1 ml)+compound (0.5-40 μl); Hydrolytic Stability: Buffer (1 ml)+compound (0.5-40 μl). The mobile phase and buffer were dispensed into separate glass LC vials, placed into a thermostatted autosampler set at 40° C., and allowed to equilibrate for 30 minutes prior to starting the individual assays. Reactions were initiated by addition of compound and monitored through a series of repeat injections made directly from the vial into an HPLC system at regular time intervals. Initial and subsequent measurements of peak area attributable to the test compound were used to fit exponential half-lives and calculate first-order rate constants. […] Consequently, the percent remaining was recorded at the last assessment time.

[2] = Soil stability assay (Stein clay loam soil); type: physicochemical; settings: for Soil Stability (t1/2, hours): Stein soil:sand 1:1, 0.3 μg per gram of soil, dark, 20° C.
Description: It is highly desirable that agrochemicals applied to soil in order to deliver a beneficial biological effect can exist in the soil for a prolonged period of time with minimal degradation. However, a biologically active agrochemical compound may undergo chemical transformation in soil, leading to decreased levels of activity and a decrease in a desired biological effect. Simple laboratory degradation studies can be used to evaluate the disappearance due to biotic and abiotic processes of a compound in soil. The time taken for a compound to degrade in soil allows the estimation of their half-life (t1/2), which corresponds to the time in which 50% of the compound under evaluation is degraded in soil. […] Stock standard solutions were prepared by dissolving 1 mg of each test compound (ie, compounds (Ib-1, Ib-19 and AB01) in acetonitrile. The stock standard solutions were stored at 6° C. Working standard solutions were then obtained by a series of dilutions of the stock standard solutions for an external calibration. A treatment solution of 100 μg/mL concentration for each test compound was prepared in acetonitrile:water (6:4)(v:v). Soil samples used for this soil stability assay were collected at the Syngenta Research Centre location in Stein (Switzerland). The soil was classified as clay loam soil. Certain physical properties of the soil are described in Table 4. 2 mm sieved Stein soil was mixed with sand at ratio 1:1 prior to starting the laboratory soil degradation experiment. 10 g of the sand-soil mix (air-dried basis) was weighed into 50 ml Corning® polypropylene centrifuge tubes and soil moisture was adjusted at 45% of the field capacity. Chemical application was performed by applying 30 μl of a 100 μg/mL solution of each test compound to 10 g soil vessel corresponding to a final concentration of 0.3 μg test compound per gram of soil. Three replicates were considered for each test compound. Treated tubes were incubated in the dark at 20° C.±0.5 with 85% relative humidity. For the estimation of half-life, different sampling times of 0, 4, 8, 24, 72, 168 and 336 hours were considered. […] The half-lives were calculated by an exponential regression analysis (single first order kinetic model) plotting the percentage of recovered compound in soil against the time. […] After centrifugation at 3500 rpm for 5 minutes, an aliquot of the supernatant was collected and analyzed via UPLC-MS (Waters Acquity UPLC-MS PDA-Detection: 254 nm- and SQD-Zspray ESI, APCI, ESCi®-; Waters Acquity UPLC Column HSS T3 2.1×30 mm-1.8 μm; Gradient mobile phase with H2O:MeOH (9:1, v:v)+0.1% HCOOH (solvent A) and MeCN+0.1% HCOOH (solvent B); 30% to 100% of solvent B in 1 min, then 100% of solvent B for 0.45 min and then down to 30% solvent B at 1.5 min.; flow rate 0.75 mL·min−1).

[3] = tested on: NK Falkone corn seeds; test: Corn seed germination under cold stress; type: in vivo; settings: 15° C.
Protocol: The effect of compounds of Formula (I) on the germination of NK Falkone corn seeds under cold stress was evaluated as follows.
NK Falkone corn seeds were sorted by size using 2 sieves, one excluding very big seeds and the other with round holes of 8 to 9 mm diameter. The seeds retained by the latter sieve were used for the germination test.
The corn seeds were placed in 24 well plates (each plate was considered as one experimental unit or replicate). Germination was initiated by the addition of 250 μl of distilled water containing 0.5% DMSO per well as a mean for compound solubilization. 8 replicates (ie, 8 plates) were used for each treatment characterization. Plates were sealed using seal foil (Polyolefin Art. Nr. 900320) from HJ-BIOANALYTIK. All plates were placed horizontally on trolleys in a climatic chamber at 15° C. or 23° C. in complete darkness. The experiment was laid out in a completely randomized design in climatic chamber with 75% Relative Humidity. Foils were pierced, one hole per well using a syringe after 72 hours for experiments performed at 15° C. and after 24 hours for experiments performed at 23° C.
Germination was followed over time by taking photographs at different time points. Image analysis was performed automatically with a macro which was developed using the Image J software. A dynamic analysis of germination was carried out by fitting a logistic curve. Three parameters were calculated from the logistic curve: the T50; the slope and the plateau. All three parameters have a high agronomical relevance and are key requirements to ensure a good early crop-establishment. The T50, slope and plateau for a selection of compounds are outlined in Table 2 below. All the values are expressed as percentages compared to an untreated control. All the three parameters are calculated considering 8 replicates and the kinetic parameters are separately determined for each germination curve. Data in bold indicate germination enhancing statistically significant differences between treated seeds and untreated control (p<0.05). • T50 corresponds to the time needed for half of the seed population to germinate. Higher negative %-values indicate faster germination. • Slope indicates how synchronous the germination of the seed population is. Positive values indicate steeper curve. The steeper the curve, the better and more uniform the germination is. • Plateau provides information about the final germination rate and it is expressed in percentage.
Positive values indicate a larger number of seeds germinated in a given period.

Row | Structure (SMILES) | half-life ([1]; pH 7 + 25% MeCN) [h] | half-life ([1]; pH 9 + 25% MeCN) [h] | loss of test compound (definitive half-life could not be determined) [1] | Soil Stability (t1/2, hours) [2] [h] | Plateau (% vs control) ([3]; rate 0.04 μM) | Slope (% vs control) ([3]; rate 0.04 μM) | T50 (% vs control) ([3]; rate 0.04 μM) | Plateau (% vs control) ([3]; rate 0.2 μM) | Slope (% vs control) ([3]; rate 0.2 μM) | T50 (% vs control) ([3]; rate 0.2 μM) | Plateau (% vs control) ([3]; rate 1 μM) | Slope (% vs control) ([3]; rate 1 μM) | T50 (% vs control) ([3]; rate 1 μM) | Plateau (% vs control) ([3]; rate 5 μM) | Slope (% vs control) ([3]; rate 5 μM) | T50 (% vs control) ([3]; rate 5 μM) | other results
1 | CC1=C(C)C(O/C=C2/C(=O)O[C@]3(C)CC[C@H]4C(C)(C)CCC[C@]4(C)[C@@H]23)OC1=O (stereo partly shown) [Ib-19] | > 17.6 | 19.4 | insufficient loss was observed | 280 | 7.10 | 13.60 | −1.10 | −4.60 | 11.40 | −3.20 | 3.00 | 7.60 | 0.20 | 8.30 | 24.20 | −2.80 | hydrolytic stability compared to the prior art compound ([1]; pH9): superior hydrolytic stability; soil stability compared to prior art compound AB01 ([2]; Stein soil): superior soil stability
2 | CC1=C[C@H](O/C=C2/C(=O)O[C@@H]3c4ccccc4C[C@H]23)OC1=O [GR-24] |  |  |  |  |  |  |  |  |  |  |  |  |  |  |  |  | Plateau (% vs control) ([3]; rate 0.08 μM, final germination rate): 2.10 % vs control; Slope (% vs control) ([3]; rate 0.08 μM, synchrony of germination): −8.50 % vs control; T50 (% vs control) ([3]; rate 0.08 μM, time for half of seeds to germinate): −0.10 % vs control; Plateau (% vs control) ([3]; rate 0.4 μM): 0.90 % vs control; Slope (% vs control) ([3]; rate 0.4 μM): 0.20 % vs control; T50 (% vs control) ([3]; rate 0.4 μM): −1.80 % vs control; Plateau (% vs control) ([3]; rate 2 μM): −1.40 % vs control; Slope (% vs control) ([3]; rate 2 μM): −0.80 % vs control; T50 (% vs control) ([3]; rate 2 μM): −0.50 % vs control; Plateau (% vs control) ([3]; rate 10 μM): 1.50 % vs control; Slope (% vs control) ([3]; rate 10 μM): 7.40 % vs control; T50 (% vs control) ([3]; rate 10 μM): −2.40 % vs control
3 | CC1=CC(O/C=C2/C(=O)O[C@]3(C)CC[C@H]4C(C)(C)CCC[C@]4(C)[C@@H]23)OC1=O (stereo partly shown) [AB01] | > 17.6 | 3 | insufficient loss was observed | 38 | −2.20 | 6.50 | −1.80 | −2.20 | 10.00 | 0.50 | 3.00 | 27.50 | −2.30 | 1.30 | 16.50 | −1.90 | 
4 | CC1=C(C)C(O/C=C2/C(=O)O[C@]3(C)CC[C@H]4C(C)(C)CCC[C@]4(C)[C@@H]23)N(c2ccccc2)C1=O (stereo partly shown) [Ib-1] | > 18.1 | > 17.8 |  | >720 |  |  |  |  |  |  |  |  |  |  |  |  | 
